Assay results as given in patent US10829483B2, “Thiophene, manufacturing method thereof, and pharmaceutical application of same” (CSTONE PHARMACEUTICAL (SUZHOU) CO., LTD., priority 2016, dated 2020).

The molecules below were run against URAT-1 (uric acid transporter) (Homo sapiens (Human), UniProt Q96S37) (assay: Inhibition of 14C uric acid transport by HEK293 cell line stably transfected with the URAT-1 gene). Settings: URAT-1 (HEK293) cells; 14C-labelled uric acid 50 um, 10 min at 37° C.; read-out: IC50 (inhibition against URAT-1).
Chain of URAT-1 (uric acid transporter) (Q96S37 whole entry): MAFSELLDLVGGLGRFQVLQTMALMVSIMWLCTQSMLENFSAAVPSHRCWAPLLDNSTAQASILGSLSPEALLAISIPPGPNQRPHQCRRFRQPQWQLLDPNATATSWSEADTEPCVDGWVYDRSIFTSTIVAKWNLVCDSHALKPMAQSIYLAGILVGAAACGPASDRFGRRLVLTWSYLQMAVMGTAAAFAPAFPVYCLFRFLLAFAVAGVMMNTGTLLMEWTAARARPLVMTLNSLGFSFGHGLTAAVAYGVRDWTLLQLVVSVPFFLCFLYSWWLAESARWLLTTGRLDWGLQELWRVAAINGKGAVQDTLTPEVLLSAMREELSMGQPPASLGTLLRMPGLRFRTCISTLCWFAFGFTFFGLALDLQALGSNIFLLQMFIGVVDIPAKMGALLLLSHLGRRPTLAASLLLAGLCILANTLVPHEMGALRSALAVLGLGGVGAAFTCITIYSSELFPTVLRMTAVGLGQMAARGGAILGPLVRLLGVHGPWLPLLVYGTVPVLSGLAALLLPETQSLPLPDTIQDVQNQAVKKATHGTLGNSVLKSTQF
Type: cell-based
Method: Determination of the IC50 value of the inhibitory activity of the compound against uric acid reabsorption by the HEK293 cell line stably transfected with the URAT-1 (uric acid transporter) gene.
URAT-1 (HEK293) cell line: the HEK293 cell line stably transfected with the URAT-1 gene
cell culture medium: DMEM culture medium added 10% fetal bovine serum (FBS), 1% sodium pyruvate and […] G418.
Uric acid solution labeled by ^14C.
1) the supernatant of cell culture was aspirated, and cells was washed with 10 mL PBS.
2) preheated trypsin was added into the cell culture flask, and the cell culture flask was rotated to make trypsin covering onto the bottom of cell culture flask equably.
3) the cells were suspended with 10-15 mL of culture medium in each T150 flask, took 0.1 mL of cell suspension and diluted it with two volumes of trypan blue solution to count the cells.
4) cells were diluted to 2.5×10^5/mL with the culture medium, and the diluted cells were added into a rat tail collagen-coated 24-well plate (800 uL/well, 2×10^5 cells/well). The plate was incubated overnight at 37° C. in a 5% CO2 incubator.
1) cells were seeded into 24-well plate, and supernatant was discarded after 16-18 h. The cells were washed twice using 600 ul HBSS buffer.
2) HBSS buffer was removed and 180 ul of HBSS buffer was added into each well again.
1) compounds were dissolved into 100% DMSO, and diluted into 6 concentration points by 3-fold dilution, or into 2 concentration points by 10-fold dilution, and the highest starting concentration was 50 mM.
2) 5 ul DMSO solution in step 1) was transferred into 120 ul of HBSS buffer to make a 25-fold dilution.
3) 10 ul diluted solution in step 2) was added into 24-well plate, and the plate was incubated for 15 min at 37° C. in a 5% CO2 incubator. The final concentration of DMSO is 0.2%. The control well contained 0.2% DMSO without compound.
^14C-labelled uric acid was diluted and added into plate, and the final concentration is 50 um. The plate was incubated for 10 min at 37° C. in a 5% CO2 incubator. After supernatant was discarded, cells were washed with HBSS buffer twice. Cells was lysed with 0.1M NaOH. And then cell lysis solution was collected into liquid scintillation tube and added with liquid scintillation solution. The signal was read by liquid scintillation counter Tri-Carb. e) data analysis URAT-1 inhibition by the treatment of the compounds was analyzed by calculating the percentage of inhibition. Non-linear fitting analysis of percent inhibition (inh %) data using GraphPad Prism software to generate the IC50 value.
An IC50 of 2 to 20 µM was found for `Cc1cc(-n2c(Br)nnc2SC(C)C(=O)O)sc1-c1ccccc1` (stereo not drawn) [WX080] in this work. An IC50 of 2 to 20 µM was found for `Cc1cc(-n2c(Br)nnc2SC(C)(C)C(=O)O)sc1-c1ccccc1` [WX081] in this work. An IC50 greater than 20 µM was found for `Cc1cc(-n2c(Br)nnc2SCC(=O)O)sc1-c1ccc(F)cc1` [WX082] in this work. An IC50 greater than 20 µM was found for `COc1ccc(-c2sc(-n3c(Br)nnc3SCC(=O)O)cc2C)cc1` [WX083] in this work. An IC50 greater than 20 µM was found for `Cc1cc(-n2c(Br)nnc2SCC(=O)O)sc1-c1ccc(C(F)(F)F)cc1` [WX084] in this work. An IC50 greater than 20 µM was found for `Cc1cc(-n2c(Br)nnc2SCC(=O)O)sc1-c1ccc(C(C)(C)C)cc1` [WX085] in this work. An IC50 of 2 to 20 µM was found for `Cc1cc(-n2c(Br)nnc2SC(C)C(=O)O)sc1-c1ccc(Cl)cc1` (stereo not drawn) [WX086] in this work. An IC50 of 2 to 20 µM was found for `Cc1cc(-n2c(Br)nnc2SC(C)C(=O)O)sc1-c1cccc(F)c1` (stereo not drawn) [WX087] in this work. An IC50 of less than 2 µM was found for `Cc1cc(-n2c(Br)nnc2SC(C(=O)O)C(C)C)sc1C1CC1` (stereo not drawn) [WX088] in this work. An IC50 of 2 to 20 µM was found for `Cc1cc(-n2c(Br)nnc2SC(C)(C)C(=O)O)sc1C1CC1` [WX089] in this work. An IC50 of 2 to 20 µM was found for `Cc1cc(-n2c(Br)nnc2SC(C(=O)O)c2ccccc2)sc1C1CC1` (stereo not drawn) [WX090] in this work. An IC50 of less than 2 µM was found for `CCC(Sc1nnc(Br)n1-c1cc(C)c(C2CC2)s1)C(=O)O` (stereo not drawn) [WX091] in this work. An IC50 of less than 2 µM was found for `Cc1cc(-n2c(Br)nnc2SC2(C(=O)O)CCCC2)sc1C1CC1` [WX092] in this work. An IC50 of less than 2 µM was found for `Cc1cc(-n2c(Br)nnc2SC2(C(=O)O)CCC2)sc1C1CC1` [WX093] in this work. An IC50 of less than 2 µM was found for `Cc1cc(-n2c(Br)nnc2SC(C)C(=O)O)sc1C1CC1` (stereo not drawn) [WX094] in this work. An IC50 greater than 20 µM was found for `Cc1cc(-n2cnnc2SCC(=O)O)sc1-c1ccc(F)cc1` [WX095] in this work. An IC50 greater than 20 µM was found for `COc1ccc(-c2sc(-n3cnnc3SCC(=O)O)cc2C)cc1` [WX096] in this work. An IC50 greater than 20 µM was found for `Cc1cc(-n2cnnc2SCC(=O)O)sc1-c1ccc(C(F)(F)F)cc1` [WX097] in this work. An IC50 greater than 20 µM was found for `Cc1cc(-n2cnnc2SCC(=O)O)sc1-c1ccc(C(C)(C)C)cc1` [WX098] in this work. An IC50 greater than 20 µM was found for `O=C(O)CSc1nnc(Br)n1-c1sc(-c2ccccc2)c2c1OCCO2` [WX099] in this work. An IC50 greater than 20 µM was found for `CCOC(=O)C(C)(C)Sc1nnc(Br)n1-c1sc(C(=O)Nc2ccc(F)c(F)c2)c2c1CCCC2` [WX100] in this work. An IC50 greater than 20 µM was found for `CC(C)c1nnc(SCC(=O)O)n1-c1sc(C2CC2)c2c1CCC2` [WX101] in this work. An IC50 of 2 to 20 µM was found for `CC(C)(Sc1nnc(Br)n1-c1sc(C2CC2)c2c1CCC2)C(=O)NO` [WX102] in this work. An IC50 of 2 to 20 µM was found for `CCOC(=O)C(C)(C)Sc1nncn1-c1sc(C(=O)NC(O)CCBr)c2c1CCCC2` (stereo not drawn) [WX103] in this work.
